This is an account of results in article PMC9775191, “A Subset Screen of the Compounds Australia Scaffold Library Identifies 7-Acylaminodibenzoxazepinones as Potent and Selective Hits for Anti-Giardia Drug Discovery” (Biomedicines, 2022).

The test concerns G. duodenalis BRIS/91/HEPU/1279. Put plainly: Primary Giardia screen at 10 µM (live-cell imaging, automated counting). The test is classed as cell-based, Giardia duodenalis. The conditions noted are these: for % Inhibition n=1 48h / % Inhibition n=1 24h: first singlicate assay; for % Inhibition n=2 24h / % Inhibition n=2 48h: re-assessment. The protocol:
Each compound was assessed in singlicate, at a final concentration of 10 μM (0.4 μL of a 5 mM stock; diluted to a final volume of 200 μL in culture medium; 0.2% DMSO). […] Plates were incubated in sealed chambers filled with 3% O2, 5% CO2 in N2 and growth was assessed at 24 and 48 h using live cell imaging and automated counting as previously described. Growth inhibition was calculated by subtracting media only background counts and determining percentage growth relative to vehicle (0.2% DMSO) controls. The reliability of these assays was assessed by calculating Z’ factors for each plate as previously described.

Regarding `Cn1ncc2c(NC3CCN(Cc4ccncc4)CC3)ncnc21` [SN00771916], the “% Inhibition n=1 48h” value is on record as 0.0%.
Same read-out and setting: next, `O=C(C(c1ccccc1)c1ccccc1)N1CCCC(c2nnc3n2CCCCC3)C1` (stereo not shown) [SN00771924]: 8.5%; `COc1cccc(CCC(=O)N2CCCC(c3nnc4n3CCCCC4)C2)c1` (stereo not shown) [SN00771943]: 2.6%.
Turning to `CSc1ccc(Cl)c(C(=O)N2CCCN(C(=O)c3ccncc3)CC2)c1` [SN00771952], the “% Inhibition n=1 48h” value is given as 45.6%.
As to `O=C(COc1ccccc1)N1CCCN(c2cccnn2)CC1` [SN00772032], the “% Inhibition n=1 48h” value came out at 1.9%.
With `Cc1ccc(N2CCCN(C(=O)CN(C)C3CC3)CC2)nn1` [SN00772050], the “% Inhibition n=1 48h” value came to 11.9%.
With `O=C(Nc1ccccc1)N1CCCC1CN1CCCCC1` (stereo not shown) [SN00772093], the “% Inhibition n=1 48h” value came out at 16.8%.
As for `O=C(NCc1ccc(F)cc1)N1CCCCC1c1nc(-c2ccccc2)no1` (stereo not shown) [SN00772110], the “% Inhibition n=1 48h” value was 0.0%.
`O=C(CCN1C(=O)CCC1=O)N1CCCC(N2CCCCCC2)C1` (stereo not shown) [SN00772233]: the “% Inhibition n=1 48h” value turned out to be 7.1%.
Turning to `CC(=O)c1c(C)[nH]c(C(=O)N2CCCC2c2nc(-c3cccc(C(F)(F)F)c3)c[nH]2)c1C` (stereo not shown) [SN00772247], the “% Inhibition n=1 48h” value amounted to 17.0%.
For `Cc1nn(C)c(N2CCN(C(C)c3nc4ccccc4s3)CC2)c1[N+](=O)[O-]` (stereo not shown) [SN00772279], the “% Inhibition n=1 48h” value came to 10.6%.
Take `Cc1nnc(CN2CCN(CC(O)COCc3ccco3)CC2)n1C` (stereo not shown) [SN00772332]: the “Average % Inhibition 24h” value was 0.0%, the “% Inhibition n=1 24h” value worked out at 0.0%, the “% Inhibition n=2 24h” value came out at 0.0% and the “Average % Inhibition 48h” value turned out to be 28.5%. Also, the “% Inhibition n=1 48h” value is reported as 57.1% and the “% Inhibition n=2 48h” value is given as 0.0%.
Consider `CCOC(=O)c1ccsc1NC(=O)CN1CCNC(=O)CC1c1ccccc1` (stereo not shown) [SN00772435], for which the “% Inhibition n=1 48h” value was determined as 0.0%.
As for `CC(C)(C)NS(=O)(=O)c1ccc(N2CCC(c3nnc4n3CCC4)CC2)c([N+](=O)[O-])c1` [SN00772456], the “% Inhibition n=1 48h” value turned out to be 4.6%.
On to `Cn1ncc2c(=O)[nH]c(CN3CCCC3Cc3ccccc3)nc21` (stereo not shown) [SN00772513], for which the “% Inhibition n=1 48h” value is recorded as 21.0%.
Regarding `Cc1ccccc1C1CCCN1Cc1nc2c(cnn2C)c(=O)[nH]1` (stereo not shown) [SN00772523], the “Average % Inhibition 24h” value was 0.0%, the “% Inhibition n=1 24h” value amounted to 0.0%, the “% Inhibition n=2 24h” value is 0.0% and the “Average % Inhibition 48h” value was 28.2%. Also, the “% Inhibition n=1 48h” value was 56.4% and the “% Inhibition n=2 48h” value worked out at 0.0%.
As for `Cc1ccc(S(=O)(=O)N2CCC[C@H]2C(=O)N2CCN(CC(=O)Nc3cccc(C)c3C)CC2)cc1` [SN00772546], the “% Inhibition n=1 48h” value came out at 7.6%.
On the same count and under the same terms, for `Cc1nc(C2CCN(CC(=O)NC(c3ccc(F)cc3)c3cccs3)CC2)n[nH]1` (stereo not shown) [SN00772581] the value was 24.6%; for `O=C(CCN1CCC(c2n[nH]c(C3CC3)n2)CC1)Nc1ccccc1` [SN00772586], 28.6%.
Regarding `COC(=O)c1ccc(F)c(S(=O)(=O)NC2(c3nc(C)cs3)CCC2)c1` [SN00772601], the “% Inhibition n=1 48h” value came out at 27.1%.
Consider `Cc1csc(C2(NC(=O)Nc3ccc4c(c3)CCO4)CCC2)n1` [SN00772607], for which the “% Inhibition n=1 48h” value was determined as 20.7%.
Take `Cn1c(=O)c2cc(C(=O)NC3CCSC3=O)n(Cc3ccccc3)c2n(C)c1=O` (stereo not shown) [SN00772623]: the “% Inhibition n=1 48h” value turned out to be 25.0%.
Regarding `CCCCOC(=O)c1ccc(NC(=O)c2cc3c(=O)n(C)c(=O)n(C)c3n2CCC)cc1` [SN00772629], the “% Inhibition n=1 48h” value came out at 16.7%.
`O=c1onc(-c2cccnc2)n1Cc1noc(C2CC2)n1` [SN00772712]: the “% Inhibition n=1 48h” value was found to be 0.0%.
As to `CCc1nccn1CC1CCCN1` (stereo not shown) [SN00772783], the “% Inhibition n=1 48h” value is recorded as 0.0%.
On to `O=C(Nc1cccc(-c2noc(C3CCOCC3)n2)c1)C1CC1` [SN00772921], for which the “% Inhibition n=1 48h” value is 0.0%.
With `Cc1cccc(-c2noc(CN3CC(n4cc(C)cn4)C3)n2)c1` [SN00772979], the “% Inhibition n=1 48h” value was 6.1%.
